IC50 and EC50 data for 20 molecules are collected here from patent US20080262064A1, “Novel Compounds For The Treatment Of GI Disorders 682” (ASTRAZENECA AB, priority 2007, published 2008).

SMILES strings stand for the structures.

The target in one experiment is T1, GABAB receptor (Homo sapiens, UniProt O75899+Q9UBS5).
T1 construct: expressed in transfected cells
T1 sequence (Q9UBS5 15-961 limits assumed): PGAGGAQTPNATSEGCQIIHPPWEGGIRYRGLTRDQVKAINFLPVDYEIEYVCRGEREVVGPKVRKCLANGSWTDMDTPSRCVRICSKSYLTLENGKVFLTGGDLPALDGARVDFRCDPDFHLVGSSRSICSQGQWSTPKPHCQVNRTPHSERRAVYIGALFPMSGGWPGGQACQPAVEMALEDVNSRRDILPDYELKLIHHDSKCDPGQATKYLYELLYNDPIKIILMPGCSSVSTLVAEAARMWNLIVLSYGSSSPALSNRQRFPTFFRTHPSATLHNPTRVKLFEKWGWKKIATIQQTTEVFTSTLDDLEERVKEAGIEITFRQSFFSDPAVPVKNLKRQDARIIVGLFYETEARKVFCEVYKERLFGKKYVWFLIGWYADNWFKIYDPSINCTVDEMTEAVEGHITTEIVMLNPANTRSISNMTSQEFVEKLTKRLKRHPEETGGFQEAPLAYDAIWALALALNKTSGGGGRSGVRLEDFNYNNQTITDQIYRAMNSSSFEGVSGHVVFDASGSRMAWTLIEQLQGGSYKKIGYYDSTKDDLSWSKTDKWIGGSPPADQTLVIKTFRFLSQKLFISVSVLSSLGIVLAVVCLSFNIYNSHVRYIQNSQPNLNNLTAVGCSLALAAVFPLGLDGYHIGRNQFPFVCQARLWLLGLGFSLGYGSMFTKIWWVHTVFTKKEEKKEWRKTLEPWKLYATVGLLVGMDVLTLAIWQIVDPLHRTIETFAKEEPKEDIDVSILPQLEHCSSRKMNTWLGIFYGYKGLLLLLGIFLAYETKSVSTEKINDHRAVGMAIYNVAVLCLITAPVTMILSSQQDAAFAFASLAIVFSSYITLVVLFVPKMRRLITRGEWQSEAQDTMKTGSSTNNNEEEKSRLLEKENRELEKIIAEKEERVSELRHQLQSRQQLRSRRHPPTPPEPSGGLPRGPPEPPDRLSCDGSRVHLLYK
T1 sequence (O75899 42-941): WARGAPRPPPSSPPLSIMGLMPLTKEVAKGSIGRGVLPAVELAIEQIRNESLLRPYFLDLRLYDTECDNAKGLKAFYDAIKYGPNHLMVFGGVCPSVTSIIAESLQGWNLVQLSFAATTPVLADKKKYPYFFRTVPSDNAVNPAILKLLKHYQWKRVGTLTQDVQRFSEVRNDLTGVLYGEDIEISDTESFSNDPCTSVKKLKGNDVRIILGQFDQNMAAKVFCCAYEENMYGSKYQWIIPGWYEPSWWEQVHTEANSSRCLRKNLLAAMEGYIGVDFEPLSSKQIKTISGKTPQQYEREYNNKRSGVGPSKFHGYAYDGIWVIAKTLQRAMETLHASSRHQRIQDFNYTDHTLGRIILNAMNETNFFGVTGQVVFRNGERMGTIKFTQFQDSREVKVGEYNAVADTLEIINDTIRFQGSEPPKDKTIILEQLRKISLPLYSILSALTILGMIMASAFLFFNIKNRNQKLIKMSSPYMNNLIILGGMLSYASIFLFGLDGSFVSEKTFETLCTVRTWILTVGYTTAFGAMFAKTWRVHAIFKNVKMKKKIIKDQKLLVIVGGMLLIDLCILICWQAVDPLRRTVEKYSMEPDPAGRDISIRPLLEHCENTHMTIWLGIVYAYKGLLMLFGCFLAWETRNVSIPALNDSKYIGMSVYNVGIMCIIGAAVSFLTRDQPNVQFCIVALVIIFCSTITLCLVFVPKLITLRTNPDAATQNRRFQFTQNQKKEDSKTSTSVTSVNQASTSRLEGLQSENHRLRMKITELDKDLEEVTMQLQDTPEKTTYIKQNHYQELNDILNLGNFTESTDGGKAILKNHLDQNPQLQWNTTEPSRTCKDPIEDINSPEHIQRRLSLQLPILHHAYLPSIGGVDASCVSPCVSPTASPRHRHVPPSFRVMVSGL
Nature of the experiment: [35S]-GTPγS binding assay, potency of PAM on the GABA dose-response. Format: biochemical. Conditions: membranes from CHO cell lines expressing GABAB receptor; GABA in presence or absence of PAM. From the text:
GABABR1a and GABABR2 were cloned from human brain cDNA and subcloned into pCI-Neo (Promega) and pALTER-1(Promega), respectively. A GABABR1a-Gαqi5 fusion protein expression vector was constructed using the pCI-Neo-GABABR1a cDNA plasmid and pLEC1-Gαqi5 (Molecular Devices, Calif.). In order to make the Gαqi5 pertussis toxin insensitive, Cys356 was mutated to Gly using standard PCR methodology with the primers 5′-[…]-3′ (forward) and 5′-GCGGCCG […]-3′ (reverse). The Gαqi5mut cDNA was ligated into the BamHI and NotI sites of pcDNA3.0 (Invitrogen). The GABAB R1a coding sequence was amplified by PCR from pCI-Neo-GABABR1a using the primers, 5′-[…]-3′ (forward) and 5′-[…]-3′ (reverse) and subcloned into the BamHI site of pcDNA3.0-Gαqis5mut.
For generation of a cell line expressing the GABABR1a/GABABR2 heterodimer, GABABR1a plasmid DNA (4 μg) GABABR2 plasmid DNA (4 μg) and lipofectamine (24 μl) were mixed in 5 ml OptiMEM and incubated for 45 minutes at room temperature. The cells were exposed to the transfection medium for 5 hours, which then was replaced with culture medium. The cells were cultured for an additional 10 days before selection agents (300 μg/ml hygromycin and 400 μg/ml geneticin) were added. Twenty-four days after transfection, single cell sorting into 96-well plates by flow cytometry was performed using a FACS Vantage SE (Becton Dickinson, Palo Alto, Calif.), After expansion, the GABAB receptor functional response was tested using the FLIPR assay described below. The clone with the highest functional response was collected, expanded and then subcloned by single cell sorting. The clonal cell line with the highest peak response in the FLIPR was used in the present study.
For generation of a stable cell line expressing GABABR1a-Gαqi5 fusion protein and GABABR2, GABABR1a-Gαqi5mut plasmid DNA (8 μg) GABABR2 plasmid DNA (8 μg) and lipofectamine (24 μl) were mixed in 5 ml OptiMEM and incubated for 45 minutes at room temperature. The cells were exposed to the transfection medium for 5 hours, which then was replaced with culture medium. After forty-eight hours, the cells were detached and seeded in 6 well plates (2000 cells well) and grown in culture medium supplemented with geneticin (400 μg/ml) and zeocin (250 μg/ml). After 4 days, cells from single colonies were collected and transferred to a 24-well plate. After 10 days, the cell clones were seeded in T-25 flasks and grown for another 16 days before they were tested for GABAB receptor mediated functional response. […] The clonal cell line that gave the highest peak response in the FLIPR was used in the present study.
[^35S]-GTPγS binding assays were performed at 30° C. for 45 min in membrane buffer (100 mM NaCl, […], 1 mM EDTA, 50 mM HEPES, pH 7.4) containing 0.025 μg/μl of membrane protein (prepared from the cell lines described above) with 0.01% bovine serum albumin (fatty acid free): 10 μM GDP, 100 μM DTT and 0.53 nM [^35S]-GTPγS (Amersham-Pharmacia Biotech) in a final volume of 200 μl. Non-specific binding was determined in the presence of 20 μM GTPγS. The reaction was started by the addition of GABA at concentration between 1 mM and 0.1 nM in the presence or absence of the required concentration of PAM. The reaction was terminated by addition of ice-cold wash buffer (50 mM Tris-HCl, 5 mM MgCl2, 50 mM NaCl, pH 7.4) followed by rapid filtration under vacuum through Printed Filtermat A glass fiber filters (Wallac) (0.05% PEI treated) using a Micro 96 Harvester (Skatron Instruments). The filters were dried for 30 min at 50° C., then a paraffin scintillant pad was melted onto the filters and the bound radioactivity was determined using a 1450 Microbeta Trilux (Wallac) scintillation counter.
GABA dose-response curves in the presence and absence of test compounds were constructed using the 4-parameter logistic equation, y=ymax+((ymin−ymax)/1+(x/C)^D), where C=EC50 and D=slope factor.
Consider `COc1nc(NC(=O)c2scc(S(=O)(=O)C(C)C)c2Cl)c(C(=O)OC(C)(C)C)n1-c1ccc(F)cc1` [Example 1, Tert-butyl 4-({[3-chloro-4-(isopropylsulfonyl)-2-thienyl]carbonyl}amino)-1-(4-fluorophenyl)-2-methoxy-1H-imidazole-5-carboxylate], for which the IC50 turned out to be 4000 nM.
Take `COc1nc(NC(=O)c2ccc(Cl)cc2)c(C(=O)OC(C)(C)C)n1-c1ccc(F)cc1` [Example 2, Tert-butyl 4-[(4-chlorobenzoyl)amino]-1-(4-fluorophenyl)-2-methoxy-1H-imidazole-5-carboxylate]: the IC50 turned out to be 3100 nM.
With `COc1nc(NC(=O)C2COc3ccccc3O2)c(C(=O)OC(C)(C)C)n1-c1ccc(F)cc1` (stereo not shown) [Example 3, Tert-butyl 4-[(2,3-dihydro-1,4-benzodioxin-2-ylcarbonyl)amino]-1-(4-fluorophenyl)-2-methoxy-1H-imidazole-5-carboxylate], the concentration for half-maximal inhibition (IC50) amounted to 1500 nM.
As to `COc1nc(NC(=O)C2(c3ccc(Cl)cc3)CCCC2)c(C(=O)OC(C)(C)C)n1-c1ccc(F)cc1` [Example 4, Tert-butyl 4-({[1-(4-chlorophenyl)cyclopentyl]carbonyl}amino)-1-(4-fluorophenyl)-2-methoxy-1H-imidazole-5-carboxylate], the IC50 worked out at 1400 nM.
On the same count and under the same terms, the same measure for `COc1nc(NC(=O)C(OC)(c2ccccc2)C(F)(F)F)c(C(=O)OC(C)(C)C)n1-c1ccc(F)cc1` (stereo not shown) [Example 5, Tert-butyl 1-(4-fluorophenyl)-2-methoxy4-[(3,3,3-trifluoro-2-methoxy-2-phenylpropanoyl)amino]-1H-imidazole-5-carboxylate]: 6200 nM; for `COc1nc(NC(=O)c2cnn(-c3ccc(Cl)cc3)c2C(F)(F)F)c(C(=O)OC(C)(C)C)n1-c1ccc(F)cc1` [Example 6, Tert-butyl 4-({[1-(4-chlorophenyl)-5-(trifluoromethyl)-1H-pyrazol-4-yl]carbonyl}amino)-1-(4-fluorophenyl)-2-methoxy-1H-imidazole-5-carboxylate]: 1600 nM.
On to `COc1nc(NC(=O)c2ccc(Oc3ccccc3)nc2)c(C(=O)OC(C)(C)C)n1-c1ccc(F)cc1` [Example 7, Tert-butyl 1-(4-fluorophenyl)-2-methoxy-4-{[(6-phenoxypyridin-3-yl)carbonyl]amino}-1H-imidazole-5-carboxylate], for which the IC50 was found to be 1600 nM.
Same read-out and setting: the same measure for `COc1nc(NC(=O)c2c(F)cc(F)cc2F)c(C(=O)OC(C)(C)C)n1-c1ccc(F)cc1` [Example 8, Tert-butyl 1-(4-fluorophenyl)-2-methoxy-4-[(2,4,6-trifluorobenzoyl)amino]-1H-imidazole-5-carboxylate]: 810 nM; for `COc1nc(NC(=O)c2ccc(Cl)cc2Cl)c(C(=O)OC(C)(C)C)n1-c1ccc(F)cc1` [Example 9, Tert-butyl 4-[(2,4-dichlorobenzoyl)amino]-1-(4-fluorophenyl)-2-methoxy-1H-imidazole-5-carboxylate]: 2160 nM.
In turn, `COCCOCC(C)(C)OC(=O)c1c(NC(=O)c2ccc(Cl)cc2Cl)nc(OC)n1-c1ccc(F)cc1` [Example 10, 2-(2-methoxyethoxy)-1,1-dimethylethyl 4-[(2,4-dichlorobenzoyl)amino]-1-(4-fluorophenyl)-2-methoxy-1H-imidazole-5-carboxylate] registered an IC50 of 1500 nM.
For `COc1nc(NC(=O)c2ccc(Cl)cc2Cl)c(C(=O)OC(C)(C)COCC(F)(F)F)n1-c1ccc(F)cc1` [Example 11, 1,1-dimethyl-2-(2,2,2-trifluoroethoxy)ethyl 4-[(2,4-dichlorobenzoyl)amino]-1-(4-fluorophenyl)-2-methoxy-1H-imidazole-5-carboxylate], the IC50 was determined as 1100 nM.
Molecule `COc1nc(NC(=O)c2ccc(Cl)cc2Cl)c(C(=O)OC(C)(C)COc2ccccc2)n1-c1ccc(F)cc1` [Example 12, 1,1-dimethyl-2-phenoxyethyl 4-[(2,4-dichlorobenzoyl)amino]-1-(4-fluorophenyl)-2-methoxy-1H-imidazole-5-carboxylate] registered an IC50 of 960 nM.
In turn, `CCOC(=O)C1(OC(=O)c2c(NC(=O)c3ccc(Cl)cc3Cl)nc(OC)n2-c2ccc(F)cc2)CC1` [Example 13, 1-(ethoxycarbonyl)cyclopropyl 4-[(2,4-dichlorobenzoyl)amino]-1-(4-fluorophenyl)-2-methoxy-1H-imidazole-5-carboxylate] had a half-maximal inhibitory concentration (IC50) of 2000 nM. Against the preceding molecule, the IC50 is about 2.1-fold higher.
With `CCC1(C)CCC(C(C)(C)OC(=O)c2c(NC(=O)c3ccc(Cl)cc3Cl)nc(OC)n2-c2ccc(F)cc2)O1` (stereo not shown) [Example 14, 1-(5-ethyl-5-methyltetrahydrofuran-2-yl)-1-methylethyl 4-[(2,4-dichlorobenzoyl)amino]-1-(4-fluorophenyl)-2-methoxy-1H-imidazole-5-carboxylate], the IC50 came to 2100 nM.
On to `COCC(C)(C)OC(=O)c1c(NC(=O)C2COc3ccccc3O2)nc(OC)n1-c1ccc2c(c1)OCO2` (stereo not shown) [Example 15, 2-methoxy-1,1-dimethylethyl 1-(1,3-benzodioxol-5-yl)-4-[(2,3-dihydro-1,4-benzodioxin-2-ylcarbonyl)amino]-2-methoxy-1H-imidazole-5-carboxylate], for which the IC50 turned out to be 1400 nM.
Turning to `COCC(C)(C)OC(=O)c1c(NC(=O)c2ccc(Cl)cc2)nc(OC)n1-c1ccc2c(c1)OCO2` [Example 16, 2-methoxy-1,1-dimethylethyl 1-(1,3-benzodioxol-5-yl)-4-[(4-chlorobenzoyl)amino]-2-methoxy-1H-imidazole-5-carboxylate], the IC50 amounted to 1200 nM.
In turn, `COCC(C)(C)OC(=O)c1c(NC(=O)COCc2ccccc2)nc(OC)n1-c1ccc2c(c1)OCO2` [Example 17, 2-methoxy-1,1-dimethylethyl 1-(1,3-benzodioxol-5-yl)-4-{[(benzyloxy)acetyl]amino}-2-methoxy-1H-imidazole-5-carboxylate] returned an IC50 of 3400 nM. Against the preceding molecule, the IC50 is about 2.8-fold higher.
The molecule `COCC(C)(C)OC(=O)c1c(NC(=O)c2ccc(Cl)cc2Cl)nc(OC)n1-c1cccc(OC)c1` [Example 18, 2-methoxy-1,1-dimethylethyl 4-[(2,4-dichlorobenzoyl)amino]-2-methoxy-1-(3-methoxyphenyl)-1H-imidazole-5-carboxylate] showed an IC50 of 1300 nM.
The molecule `CCc1nc(NC(=O)c2ccc(N=[N+]=[N-])cc2)c(C(=O)OC(C)(C)C)n1-c1ccc(F)cc1` [Example 19, Tert-butyl 4-[(4-azidobenzoyl)amino]-2-ethyl-1-(4-fluorophenyl)-1H-imidazole-5-carboxylate] showed an IC50 of 1100 nM.
In turn, `CCc1nc(NC(=O)c2ccc(Cl)cc2Cl)c(C(=O)OC(C)(C)C)n1-c1ccc(F)cc1` [Example 20, Tert-butyl 4-[(2,4-dichlorobenzoyl)amino]-2-ethyl-1-(4-fluorophenyl)-1H-imidazole-5-carboxylate] showed an IC50 of 3700 nM.

Staying with this experiment, now noted: potency of PAM in GTPγS assays.
As to `COc1nc(NC(=O)c2ccc(Cl)cc2Cl)c(C(=O)OC(C)(C)C)n1-c1ccc(F)cc1` [Example 9, Tert-butyl 4-[(2,4-dichlorobenzoyl)amino]-1-(4-fluorophenyl)-2-methoxy-1H-imidazole-5-carboxylate], the EC50 was 2160 nM.
`COc1nc(NC(=O)c2ccc(Cl)cc2Cl)c(C(=O)OC(C)(C)COc2ccccc2)n1-c1ccc(F)cc1` [Example 12, 1,1-dimethyl-2-phenoxyethyl 4-[(2,4-dichlorobenzoyl)amino]-1-(4-fluorophenyl)-2-methoxy-1H-imidazole-5-carboxylate] returned an EC50 of 960 nM. Against the preceding molecule, the EC50 is about 2.2-fold lower.
